Measured values: patent US7625711B2, “Screening method for the identification of a drug for the development of an agent for prevention and/or treatment of Alzheimer's disease” (Hisamitsu Pharmaceutical Co., Inc., priority 2003, dated 2009)

What was measured:
Type in all cases: cell-based, human
SH-SY5Y cells = assay: Cell viability assay (MTT method) after cisplatin treatment; settings: SH-SY5Y cells treated with cisplatin, FIG. 14
Procedure: SH-SY5Y cells, which are a neuroblastoma cell line, are used as tumor cells. SH-SY5Y cells are treated with cisplatin, and then the cell viability is measured by the MTT method. FIG. 14 is a graph showing the relationship between the amount of cisplatin and the cell viability of SH-SY5Y cells. The cell viability was determined by a modified 3-(4,5-dimethylthiazol-2-yl)-2,5-diphenyltetrazolium bromide (MTT) assay. Specifically, […] cells were plated on 100 μl of complete medium in a 96-well micro titer plate (5×10^3 cells/well), and made to adhere thereto. On the next day, the medium was changed, and the cells were treated with cisplatin for 24 hours. In the MTT assay, 10 μl of MTT solution was added to each well, and incubated at 37° C. for 3 hours. The absorbance of the wells at 570 nm was measured using a microplate reader (Type 450, Bio-Rad Laboratories).

p53 = assay: Immunoblotting of cisplatin-treated SH-SY5Y cells with anti-p53 antibody; settings: FIG. 15
Procedure: (§1) Next, products obtained by cisplatin treatment of SH-SY5Y cells are analyzed by immunoblotting and immunoprecipitation. Specifically, SH-SY5Y cells are treated with cisplatin, and then the expression levels of p53, p21, βAPP and actin are analyzed by immunoblotting. Moreover, an interaction between a βAPP-derived product and p53 is analyzed by immunoprecipitation and immunoblotting. FIG. 15 is diagrams showing the result of immunoblotting analysis of products obtained by cisplatin treatment of SH-SY5Y cells. In the figure, “IP” means immunoprecipitation, and “IB” means immunoblotting. The second diagram from the top in FIG. 15 is a diagram showing the result of immunoblotting analysis using anti-p53 antibody. […] The third diagram from the top in FIG. 15 is a diagram showing the result of immunoblotting analysis using anti-p21 antibody. […] The uppermost diagram in FIG. 15 is a diagram showing the result of immunoprecipitation of a cell lysate (homogenate) using anti-βAPP antibody, and immunoblotting analysis of the immunoprecipitate using anti-p53 antibody. […] Since βAPP is present on the membrane and p53 is present in the nucleus, it is unlikely that there is physical binding therebetween.

p21 = assay: Immunoblotting of cisplatin-treated SH-SY5Y cells with anti-p21 antibody; settings: FIG. 15
Procedure: as §1

[1] = system: βAPP-derived product and p53; assay: Immunoprecipitation with anti-βAPP antibody and immunoblotting with anti-p53 antibody of cisplatin-treated SH-SY5Y cells; settings: SH-SY5Y cell lysate, IP anti-βAPP, IB anti-p53, FIG. 15
Procedure: as §1

## N.N.[Cl][Pt][Cl] [cisplatin]
SH-SY5Y cells
  cell viability of SH-SY5Y cells: the number of SH-SY5Y cells decreases depending on the dosage of cisplatin
p53
  induction of endogenous p53: the induction of endogenous p53 by cisplatin can be seen
p21
  expression of p21: p53 expressed during the cisplatin treatment promotes the expression of p21
[1]
  physical binding between a βAPP-derived product and p53: p53 is present in the cisplatin treatment group
